Experiments:
human AXL (473-end) = target: T1, human AXL (473-end) (Homo sapiens, UniProt P30530); assay: HTRF kinase activity biochemical assay, AXL; details: 10 μM ATP, 30 minutes pre-incubation
T1 construct: human AXL (473-end); purchased SignalChem, Canada
T1 sequence (P30530 473-894 limits assumed): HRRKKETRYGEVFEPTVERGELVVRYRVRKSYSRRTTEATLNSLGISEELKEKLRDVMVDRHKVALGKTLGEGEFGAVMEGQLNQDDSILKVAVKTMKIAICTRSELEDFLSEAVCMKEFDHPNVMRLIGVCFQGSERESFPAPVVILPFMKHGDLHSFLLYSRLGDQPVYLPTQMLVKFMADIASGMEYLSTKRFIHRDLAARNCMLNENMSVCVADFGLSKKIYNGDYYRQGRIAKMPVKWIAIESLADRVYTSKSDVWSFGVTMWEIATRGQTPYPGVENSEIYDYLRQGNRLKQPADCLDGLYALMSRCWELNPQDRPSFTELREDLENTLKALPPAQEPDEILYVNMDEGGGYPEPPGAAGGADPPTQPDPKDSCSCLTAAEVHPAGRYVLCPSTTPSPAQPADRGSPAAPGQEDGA

human TYRO3 (455-end) = target: T2, human TYRO3 (455-end) (Homo sapiens, UniProt Q06418); assay: HTRF kinase activity biochemical assay, TYRO3; details: 10 μM ATP, 30 minutes pre-incubation; read-out: HTRF TYRO IC50
T2 construct: TYRO3 (455-end); purchased SignalChem, Canada
T2 sequence (Q06418 455-890 limits assumed): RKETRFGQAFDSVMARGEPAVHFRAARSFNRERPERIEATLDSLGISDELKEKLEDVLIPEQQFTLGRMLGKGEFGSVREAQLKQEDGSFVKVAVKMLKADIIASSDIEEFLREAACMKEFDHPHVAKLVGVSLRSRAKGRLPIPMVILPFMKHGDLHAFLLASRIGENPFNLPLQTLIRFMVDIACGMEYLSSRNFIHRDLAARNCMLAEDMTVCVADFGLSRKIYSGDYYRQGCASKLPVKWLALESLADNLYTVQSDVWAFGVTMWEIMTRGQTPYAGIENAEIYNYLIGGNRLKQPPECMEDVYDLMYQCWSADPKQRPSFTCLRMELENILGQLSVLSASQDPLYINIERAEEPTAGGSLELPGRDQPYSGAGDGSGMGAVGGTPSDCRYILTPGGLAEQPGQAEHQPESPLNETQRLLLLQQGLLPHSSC

human MER (528-end) = target: T3, human MER (528-end) (Homo sapiens, UniProt Q12866); assay: HTRF kinase activity biochemical assay, MER; details: 10 μM ATP, 30 minutes pre-incubation; read-out: HTRF MERTK IC50
T3 construct: human MER (528-end); purchased Camnabio, Japan
T3 sequence (Q12866 528-999 limits assumed): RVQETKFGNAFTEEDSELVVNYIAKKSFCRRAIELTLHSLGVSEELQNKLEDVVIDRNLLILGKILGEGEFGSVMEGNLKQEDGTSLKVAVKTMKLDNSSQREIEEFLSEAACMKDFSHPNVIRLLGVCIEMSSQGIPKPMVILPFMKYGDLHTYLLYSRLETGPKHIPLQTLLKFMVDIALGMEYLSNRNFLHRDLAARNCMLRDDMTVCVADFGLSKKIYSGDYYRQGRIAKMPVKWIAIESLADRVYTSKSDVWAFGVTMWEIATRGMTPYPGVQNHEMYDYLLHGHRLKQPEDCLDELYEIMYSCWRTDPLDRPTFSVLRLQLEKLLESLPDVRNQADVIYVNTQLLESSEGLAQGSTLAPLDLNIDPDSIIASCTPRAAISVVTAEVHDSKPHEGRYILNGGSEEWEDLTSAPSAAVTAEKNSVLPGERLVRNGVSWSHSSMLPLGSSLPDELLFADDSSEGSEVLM

Row | Compound | IC50 (human AXL (473-end)) | IC50 (human TYRO3 (455-end)) | IC50 (human MER (528-end))
1 | Nc1ncc(-c2ccc(F)nc2)cc1C(=O)N[C@H]1CCC[C@@H]1OCc1ccc(-c2ccc3c(c2)CCC3N2CCN(CCO)CC2)cc1 (stereo partly drawn) [Example 19, 6-amino-6′-fluoro-N-{(1S,2S)-2-[(4-{1-[4-(2-hydroxyethyl)piperazin-1-yl]-2,3-dihydro-1H-inden-5-yl}phenyl)methoxy]cyclopentyl}[3,3′-bipyridine]-5-carboxamide] | < 10 nM | 100 to 1000 nM | < 10 nM
2 | Cn1cc(-c2cnc(N)c(C(=O)N[C@H]3CCC[C@@H]3OCc3ccc(-c4ccc5c(c4)CC[C@H]5N4CCN(CC(O)CO)CC4)cc3)c2)cn1 (stereo partly drawn) [Example 101, 2-amino-N-{(1S,2S)-2-[(4-{(1R)-1-[4-(2,3-dihydroxypropyl)piperazin-1-yl]-2,3-dihydro-1H-inden-5-yl}phenyl)methoxy]cyclopentyl}-5-(1-methyl-1H-pyrazol-4-yl)pyridine-3-carboxamide] | 10 to 100 nM | > 1000 nM | 10 to 100 nM
3 | Cn1ccc(-c2cnc(N)c(C(=O)N[C@H]3CCC[C@@H]3OCc3ccc(-c4ccc5c(c4)CC[C@@H]5N4CCN(CC(O)CO)CC4)cc3)c2)cc1=O (stereo partly drawn) [Example 99, 6-amino-N-{(1S,2S)-2-[(4-{(1S)-1-[4-(2,3-dihydroxypropyl)piperazin-1-yl]-2,3-dihydro-1H-inden-5-yl}phenyl)methoxy]cyclopentyl}-1′-methyl-2′-oxo-1′,2′-dihydro[3,4′-bipyridine]-5-carboxamide] | < 10 nM | 100 to 1000 nM | < 10 nM
4 | Cn1ccc(-c2cc(C(=O)N[C@H]3CCC[C@@H]3OCc3ccc(-c4ccc5c(c4)CC(F)(F)C5N4CCN(CCO)CC4)cc3)cnc2N)cc1=O (stereo partly drawn) [Example 87, amino-N-{(1S,2S)-2-[(4-{2,2-difluoro-1-[4-(2-hydroxyethyl)piperazin-1-yl]-2,3-dihydro-1H-inden-5-yl}phenyl)methoxy]cyclopentyl}-1′-methyl-2′-oxo-1′,2′-dihydro[3,4′-bipyridine]-5-carboxamide] | < 10 nM | 100 to 1000 nM | < 10 nM
5 | Nc1ncc(-c2ccc(F)nc2)cc1C(=O)N[C@H]1CCC[C@@H]1OCc1ccc(-c2ccc3c(c2)CC(F)(F)C3N2CCN(CC(O)CO)CC2)cc1 (stereo partly drawn) [Example 62, 6-amino-N-{(1S,2S)-2-[(4-{1-[4-(2,3-dihydroxypropyl)piperazin-1-yl]-2,2-difluoro-2,3-dihydro-1H-inden-5-yl}phenyl)methoxy]cyclopentyl}-6′-fluoro[3,3′-bipyridine]-5-carboxamide] | < 10 nM | > 1000 nM | < 10 nM
6 | Cn1cc(-c2cnc(N)c(C(=O)N[C@H]3CCC[C@@H]3OCc3ccc(-c4ccc5c(c4)CC(F)(F)C5N4CCN(CC(O)CO)CC4)cc3)c2)cn1 (mixture of isomers) [Example 59, 2-amino-N-{(1S,2S)-2-[(4-{1-[4-(2,3-dihydroxypropyl)piperazin-1-yl]-2,2-difluoro-2,3-dihydro-1H-inden-5-yl}phenyl)methoxy]cyclopentyl}-5-(1-methyl-1H-pyrazol-4-yl)pyridine-3-carboxamide] | < 10 nM | 100 to 1000 nM | < 10 nM
7 | Cn1cc(-c2cnc(N)c(C(=O)N[C@H]3CCC[C@@H]3OCc3ccc(-c4cnc5c(c4)C(C)(C)CN5C4CCN(CCO)CC4)cc3)c2)cn1 [Example 77, 2-amino-N-{(1S,2S)-2-[(4-{1-[1-(2-hydroxyethyl)piperidin-4-yl]-3,3-dimethyl-2,3-dihydro-1H-pyrrolo[2,3-b]pyridin-5-yl}phenyl)methoxy]cyclopentyl}-5-(1-methyl-1H-pyrazol-4-yl)pyridine-3-carboxamide] | < 10 nM | 10 to 100 nM | < 10 nM
8 | CN1C(=O)Cc2cc(-c3ccc(CO[C@H]4CCC[C@@H]4NC(=O)c4cc(-c5cnn(C)c5)cnc4N)cc3)ccc21 [Example 3, 2-amino-N-[(1S,2S)-2-{[4-(1-methyl-2-oxo-2,3-dihydro-1H-indol-5-yl)phenyl]methoxy}cyclopentyl]-5-(1-methyl-1H-pyrazol-4-yl)pyridine-3-carboxamide] | 100 to 1000 nM | > 1000 nM | 10 to 100 nM
9 | Cn1cc(-c2cnc(N)c(C(=O)N[C@H]3CCC[C@@H]3OCc3ccc(-c4ccc5[nH]c(C(F)(F)F)cc5c4)cc3)c2)cn1 [Example 53, 2-amino-5-(1-methyl-1H-pyrazol-4-yl)-N-[(1S,2S)-2-({4-[2-(trifluoromethyl)-1H-indol-5-yl]phenyl}methoxy)cyclopentyl]pyridine-3-carboxamide] | 100 to 1000 nM | > 1000 nM | 100 to 1000 nM

Other lines, results leading:

Row | IC50 (human AXL (473-end)) | IC50 (human TYRO3 (455-end)) | IC50 (human MER (528-end)) | Compound
10 | < 10 nM | 100 to 1000 nM | < 10 nM | Cn1cc(-c2cnc(N)c(C(=O)N[C@H]3CCC[C@@H]3OCc3ccc(-c4ccc5c(c4)CC(C)(C)C5N4CCN(CCO)CC4)cc3)c2)cn1 (stereo partly drawn) [Example 105, 2-amino-N-{(1S,2S)-2-[(4-{1-[4-(2-hydroxyethyl)piperazin-1-yl]-2,2-dimethyl-2,3-dihydro-1H-inden-5-yl}phenyl)methoxy]cyclopentyl}-5-(1-methyl-1H-pyrazol-4-yl)pyridine-3-carboxamide]
11 | < 10 nM | 10 to 100 nM | < 10 nM | CN1CCN(C2CCC(C)(C)c3cc(-c4ccc(CO[C@H]5CCC[C@@H]5NC(=O)c5cc(-c6cnn(C)c6)cnc5N)cc4)ccc32)CC1 (stereo partly drawn) [Example 147, 2-amino-N-[(1S,2S)-2-({4-[8,8-dimethyl-5-(4-methylpiperazin-1-yl)-5,6,7,8-tetrahydronaphthalen-2-yl]phenyl}methoxy)cyclopentyl]-5-(1-methyl-1H-pyrazol-4-yl)pyridine-3-carboxamide]
12 | < 10 nM | 10 to 100 nM | < 10 nM | CN1CCN(C2CC(C)(C)c3cc(-c4ccc(CO[C@H]5CCC[C@@H]5NC(=O)c5cc(-c6ccn(C)c(=O)c6)cnc5N)cc4)ccc32)CC1 (stereo partly drawn) [Example 107, 6-amino-N-[(1S,2S)-2-({4-[3,3-dimethyl-1-(4-methylpiperazin-1-yl)-2,3-dihydro-1H-inden-5-yl]phenyl}methoxy)cyclopentyl]-1′-methyl-2′-oxo-1′,2′-dihydro[3,4′-bipyridine]-5-carboxamide]
13 | < 10 nM | 10 to 100 nM | < 10 nM | Cc1csc(-c2cnc(N)c(C(=O)N[C@H]3CCC[C@@H]3OCc3ccc(-c4ccc5c(c4)CC[C@@H]5N4CCN(CCO)CC4)cc3)c2)n1 [Example 181, 2-amino-N-{(1S,2S)-2-[(4-{(1S)-1-[4-(2-hydroxyethyl)piperazin-1-yl]-2,3-dihydro-1H-inden-5-yl}phenyl)methoxy]cyclopentyl}-5-(4-methyl-1,3-thiazol-2-yl)pyridine-3-carboxamide]
14 | < 10 nM | 10 to 100 nM | < 10 nM | CC1(C)CC(N2CCN(CCO)CC2)c2ccc(-c3ccc(CO[C@H]4CCC[C@@H]4NC(=O)c4cc(-c5cccnc5F)cnc4N)cc3)cc21 (stereo partly drawn) [Example 119, 6-amino-2′-fluoro-N-{(1S,2S)-2-[(4-{1-[4-(2-hydroxyethyl)piperazin-1-yl]-3,3-dimethyl-2,3-dihydro-1H-inden-5-yl}phenyl)methoxy]cyclopentyl}[3,3′-bipyridine]-5-carboxamide]
15 | 10 to 100 nM | > 1000 nM | 10 to 100 nM | CN(CCC(O)CO)C1CCc2cc(-c3ccc(CO[C@H]4CCC[C@@H]4NC(=O)c4cc(-c5cnn(C)c5)cnc4N)cc3)ccc21 (stereo partly drawn) [Example 125, 2-amino-N-{(1S,2S)-2-[(4-{1-[(3,4-dihydroxybutyl)(methyl)amino]-2,3-dihydro-1H-inden-5-yl}phenyl)methoxy]cyclopentyl}-5-(1-methyl-1H-pyrazol-4-yl)pyridine-3-carboxamide]
